Measured values from article PMC11443518, “Undescribed Amaryllidaceae Alkaloids from Zephyranthes citrina and Their Cytotoxicity” (Journal of Natural Products, 2024).
Values joined by “and” are separate entries in the source; they are usually repeats but may differ in a detail not shown here. Equal entries are not always repeated. Where two headings read alike, the source gives them in different places.

What was measured:
[1] = system: MCF-7 (breast adenocarcinoma); assay: WST-1 cell proliferation assay, cytotoxicity screening; assay type: cell-based, human; conditions: Homo sapiens, read-out: growth percent (GP) MCF-7
From the text: (§1) Selected human tumor and nontumor cell lines Jurkat (acute T-cell leukemia), MOLT-4 (acute lymphoblastic leukemia), A549 (lung carcinoma), HT-29 (colorectal adenocarcinoma), PANC-1 (pancreas epithelioid carcinoma), A2780 (ovarian carcinoma), HeLa (cervix adenocarcinoma), MCF-7 (breast adenocarcinoma), SAOS-2 (osteosarcoma) and MRC-5 (nontumor lung fibroblasts) were purchased from European Collection of Authenticated Cell Cultures (ECACC, Salisbury, UK) and cultured according to the provider’s culture method guidelines. […] The cells in low passage number (nontumor primary cell line MRC-5 was used for a maximum of 10 passages and cancer cell lines were used for a maximum of 20 passages) and in an exponential growth phase were used for this study.
(§2) Each cell line was seeded at a previously established optimal density (1 × 10^3 to 50 × 10^3 cells per well) in a 96-well plate (TPP, Trasadingen, Switzerland) and cells were allowed to settle overnight. During screening tests for cytotoxicity, cells were treated with alkaloids at a final concentration of 10 μM for 48 h. Doxorubicin (Sigma-Aldrich, St. Louis, USA), at a concentration of 1 μM, was used as a positive control. At the end of the culture period, the WST-1 proliferation assay (Roche, Basel, Switzerland) was performed according to the manufacturer’s protocol. The absorbance was determined using a Tecan Spark microplate reader (Tecan, Männedorf, Switzerland). Each value is the mean of three independent experiments and represents the percentage of the proliferation of control, nontreated cells (100%). The growth percent (GP) value as the mean of the proliferation decrease was calculated for each cell line and derivative tested.

[2] = system: MOLT-4 (acute lymphoblastic leukemia); assay: as above; assay type: cell-based, human; conditions: Homo sapiens, read-out: growth percent (GP) MOLT-4
From the text: as §1, §2

[3] = system: MRC-5 (nontumor lung fibroblasts); assay: as above; assay type: cell-based; conditions: Homo sapiens, read-out: growth percent (GP) MRC-5
From the text: as §1, §2

[4] = system: HT-29 (colorectal adenocarcinoma); assay: as above; assay type: cell-based; conditions: Homo sapiens, read-out: growth percent (GP) HT-29
From the text: as §1, §2

[5] = system: A2780 (ovarian carcinoma); assay: as above; assay type: cell-based; conditions: Homo sapiens, read-out: growth percent (GP) A2780
From the text: as §1, §2

SAOS-2 (osteosarcoma) = assay: as above; assay type: cell-based; conditions: Homo sapiens, read-out: growth percent (GP) SAOS-2
From the text: as §1, §2

[6] = system: HeLa (cervix adenocarcinoma); assay: as above; assay type: cell-based; conditions: Homo sapiens, 48 h, read-out: growth percent (GP) HeLa
From the text: as §1, §2

A549 (lung carcinoma) = assay: as above; assay type: cell-based; conditions: Homo sapiens, read-out: growth percent (GP) A549
From the text: as §1, §2

[7] = system: Jurkat (acute T-cell leukemia); assay: as above; assay type: cell-based; conditions: Homo sapiens, 48 h, read-out: growth percent (GP) Jurkat
From the text: as §1, §2

[8] = system: PANC-1 (pancreas epithelioid carcinoma); assay: as above; assay type: cell-based; conditions: Homo sapiens, read-out: growth percent (GP) PANC-1
From the text: as §1, §2

hBChE = molecular target: T1, hBChE (Homo sapiens, UniProt P06276); assay: biochemical; assay type: biochemical; conditions: recombinant BChE, Ellman, 37 °C
T1 construct: purchased University Hradec Kralove, Department of Chemistry, Faculty of Science
Procedure: (§3) The hAChE and hBChE activities were determined using a modified method of Ellman, as described by Hrabinova and co-workers against recombinant AChE and recombinant BChE (purchased from University Hradec Kralove, Department of Chemistry, Faculty of Science).[43] Other used chemicals were phosphate buffer solution (PBS, pH = 7.4), 5,5′-dithio-bis(2-nitrobenzoic) acid (Ellman’s reagent, DTNB), acetylthiocholine iodide (ATChI), butyrylthiocholine iodide (BTChI), and dimethyl sulfoxide (DMSO) (all chemicals were purchased from Sigma-Aldrich, Prague, Czech Republic).
(§4) Briefly, 8.3 μL of the corresponding enzyme, 283 μL of 5 mM DTNB, and 8.3 μL of the sample dilution in DMSO in different concentrations were added to the microplate. These solutions were incubated for 5 min at 37 °C. Then, 33.3 μL of 10 mM substrate (ATChI or BTChI) was added to initiate the reaction, and the whole reaction mixture was incubated for 2 min at 37 °C. […] This difference after 1 min was used to calculate the percentage of inhibitory potential of the given derivative. Each measurement was repeated three times for every concentration of the compound. 8.3 μL DMSO was used as a blank. The % inhibition was calculated according to the following formula: [drawing 3] where ΔABl is the increase of absorbance of the blank sample and ΔASa is the increase of absorbance of the measured sample.

hAChE = molecular target: T2, hAChE (Homo sapiens, UniProt P22303); assay: biochemical; assay type: biochemical; conditions: recombinant AChE, Ellman, 37 °C
T2 construct: purchased University Hradec Kralove, Department of Chemistry, Faculty of Science
Procedure: as §3, §4

[9] = system: nine human tumor and one nontumor cell lines; assay: Cytotoxicity screening across the whole panel of cell lines; assay type: cell-based; conditions: Homo sapiens, read-out: GP value across the tested cell lines
From the text: Concerning the cytotoxicity of alkaloids isolated from Z. citrina, initially, Prakash and Vedanayaki investigated the MeOH extract of the bulbs for its in vitro cytotoxic activity using the MTT assay against three human cancer cell lines from different tissue origins: cervical cancer (HeLa), breast cancer (MCF-7), and oral squamous carcinoma (SCC-9). […] In this context, and to assess potential negative effects on human cell cultures, compounds 1, and 3–27 were screened in our study for cytotoxicity using a 10 μM single-dose regimen. The results were compared with those using the clinically approved antineoplastic agent doxorubicin at 1 μM. The effect on cell growth was investigated on nine human tumor and one nontumor cell lines, namely Jurkat (acute T-cell leukemia), MOLT-4 (acute lymphoblastic leukemia), A549 (lung carcinoma), HT-29 (colorectal adenocarcinoma), PANC-1 (pancreas epithelioid carcinoma), A2780 (ovarian carcinoma), HeLa (cervix adenocarcinoma), MCF-7 (breast adenocarcinoma), SAOS-2 (osteosarcoma) and MRC-5 (nontumor lung fibroblasts). […] No toxicity is valuable information, especially for compound 18, as it is a potent inhibitor of hAChE and hBChE.[27]
Selected human tumor and nontumor cell lines Jurkat (acute T-cell leukemia), MOLT-4 (acute lymphoblastic leukemia), A549 (lung carcinoma), HT-29 (colorectal adenocarcinoma), PANC-1 (pancreas epithelioid carcinoma), A2780 (ovarian carcinoma), HeLa (cervix adenocarcinoma), MCF-7 (breast adenocarcinoma), SAOS-2 (osteosarcoma) and MRC-5 (nontumor lung fibroblasts) were purchased from European Collection of Authenticated Cell Cultures (ECACC, Salisbury, UK) and cultured according to the provider’s culture method guidelines. All cell lines were maintained at 37 °C in a humidified 5% carbon dioxide and 95% air incubator. The cells in low passage number (nontumor primary cell line MRC-5 was used for a maximum of 10 passages and cancer cell lines were used for a maximum of 20 passages) and in an exponential growth phase were used for this study.
as §2

[10] = MCF7, c = 10 μM, 48 h, % of proliferation of nontreated control
[11] = MOLT-4, c = 10 μM, 48 h, % of proliferation of nontreated control
[12] = MRC5, c = 10 μM, 48 h, % of proliferation of nontreated control
[13] = HT-29, c = 10 μM, 48 h, % of proliferation of nontreated control
[14] = A2780, c = 10 μM, 48 h, % of proliferation of nontreated control
[15] = SAOS-2, c = 10 μM, 48 h, % of proliferation of nontreated control
[16] = c = 10 μM, % of proliferation of nontreated control
[17] = A549, c = 10 μM, 48 h, % of proliferation of nontreated control
[18] = PANC-1, c = 10 μM, 48 h, % of proliferation of nontreated control
[19] = 10 μM single dose, 48-h interval, all tested cell lines

T2 sequence (P22303 32-614): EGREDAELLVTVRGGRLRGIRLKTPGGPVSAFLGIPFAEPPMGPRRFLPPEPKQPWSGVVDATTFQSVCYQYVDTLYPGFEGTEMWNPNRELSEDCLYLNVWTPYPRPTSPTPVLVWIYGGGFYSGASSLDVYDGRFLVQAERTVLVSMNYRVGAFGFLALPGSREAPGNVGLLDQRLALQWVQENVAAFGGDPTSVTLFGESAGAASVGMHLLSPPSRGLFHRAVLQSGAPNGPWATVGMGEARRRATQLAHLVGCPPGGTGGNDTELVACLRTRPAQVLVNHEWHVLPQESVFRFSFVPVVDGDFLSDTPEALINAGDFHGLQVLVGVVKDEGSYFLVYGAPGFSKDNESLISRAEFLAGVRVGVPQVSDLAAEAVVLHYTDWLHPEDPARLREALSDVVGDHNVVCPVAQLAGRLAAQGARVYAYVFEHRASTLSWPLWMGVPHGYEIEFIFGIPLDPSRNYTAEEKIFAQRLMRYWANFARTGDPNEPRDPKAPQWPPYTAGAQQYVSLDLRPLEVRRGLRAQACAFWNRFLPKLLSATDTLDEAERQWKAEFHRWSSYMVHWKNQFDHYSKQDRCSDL
T1 sequence (P06276 29-602): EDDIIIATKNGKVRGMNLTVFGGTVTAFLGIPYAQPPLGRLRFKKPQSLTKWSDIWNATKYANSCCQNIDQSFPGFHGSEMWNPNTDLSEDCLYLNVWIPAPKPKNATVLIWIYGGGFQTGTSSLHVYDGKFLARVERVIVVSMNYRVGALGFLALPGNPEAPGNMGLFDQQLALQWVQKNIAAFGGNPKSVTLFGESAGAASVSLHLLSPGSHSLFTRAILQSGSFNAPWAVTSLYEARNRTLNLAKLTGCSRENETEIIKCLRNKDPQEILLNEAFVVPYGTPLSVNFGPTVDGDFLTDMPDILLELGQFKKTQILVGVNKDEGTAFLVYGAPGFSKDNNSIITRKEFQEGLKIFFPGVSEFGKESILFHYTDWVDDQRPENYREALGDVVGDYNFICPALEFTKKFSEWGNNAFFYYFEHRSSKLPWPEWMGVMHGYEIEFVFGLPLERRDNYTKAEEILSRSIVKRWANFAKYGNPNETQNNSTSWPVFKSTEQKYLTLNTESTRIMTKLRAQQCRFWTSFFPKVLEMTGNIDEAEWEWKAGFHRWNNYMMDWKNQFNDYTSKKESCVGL

SMILES	activity at 10 µM ([1]; MCF7, 48 h)	activity at 10 µM ([2]; MOLT-4, 48 h)	activity at 10 µM ([3]; MRC5, 48 h)	activity at 10 µM ([4]; HT-29, 48 h)	activity at 10 µM ([5]; A2780, 48 h)	activity at 10 µM (SAOS-2 (osteosarcoma); SAOS-2, 48 h)	activity at 10 µM [6]	activity at 10 µM (A549 (lung carcinoma); A549, 48 h)	activity at 10 µM [7]	activity at 10 µM ([8]; PANC-1, 48 h)	IC50 (hBChE)	IC50 (hAChE)	activity at 10 µM ([9]; 48 h)	activity at 10 µM [1, 10]	activity at 10 µM [2, 11]	activity at 10 µM [3, 12]	activity at 10 µM [4, 13]	activity at 10 µM [5, 14]	activity at 10 µM (SAOS-2 (osteosarcoma); [15])	activity at 10 µM [6, 16]	also measured
CCO[C@H]1c2cc(OC)c(OC)cc2[C@@]23CC[C@H](OC)C[C@@H]2N1CC3 [Compound 4, 6-O-ethylzephyranine E]	96%	101%	99%	91%	85%	98%	109%	100%	90%	88%	> 100 µM	> 100 µM	> 50%	–	–	–	–	–	–	–	–
COc1cc2c(c(O)c1OC)[C@@]13CC[C@H](O)C[C@@H]1N(CC3)C2O (stereo partly drawn) [Compound 8, zephyranine C]	112%	98%	100%	121%	105%	111%	117%	117%	109%	110%	> 100 µM	> 100 µM	> 50%	–	–	–	–	–	–	–	–
CCO[C@H]1c2cc(OC)c(OC)c(O)c2[C@@]23CC[C@H](OC)C[C@@H]2N1CC3 [Compound 3, 6-O-ethylzephyranine F]	97%	101%	104%	103%	110%	99%	108%	103%	108%	101%	> 100 µM	> 100 µM	> 50%	–	–	–	–	–	–	–	–
COc1ccc2c3c1O[C@H]1C[C@@H](O)CC[C@@]31CCNC2 [Compound 7, norlycoramine]	97%	99%	98%	100%	97%	97%	98%	103%	103%	103%	> 100 µM	> 100 µM and 155 µM	> 50%	–	–	–	–	–	–	–	–
COc1cc2c(cc1OC)[C@@H]1[C@H](O)[C@@H](OC)[C@H](O)C3=CCN(C2)[C@H]31 [Compound 6, narcissidine]	–	–	–	–	–	–	–	–	–	–	> 100 µM	> 100 µM	–	103%	101%	101%	108%	101%	101%	123%	activity at 10 µM (A549 (lung carcinoma); [17]): 113%; activity at 10 µM [7, 16]: 111%; activity at 10 µM [8, 18]: 102%; activity at 10 µM [9, 19]: > 50%
COc1cc2c(cc1OC)[C@@]13C=C[C@@H](OC)C[C@@H]1N(C2)C[C@@H]3O [Compound 1, zephycitrine]	–	–	–	–	–	–	–	–	–	–	> 100 µM	> 100 µM	–	106%	99%	107%	101%	98%	101%	97%	activity at 10 µM (A549 (lung carcinoma); [17]): 100%; activity at 10 µM [7, 16]: 111%; activity at 10 µM [8, 18]: 102%; activity at 10 µM [9, 19]: > 50%
